Experimental data published in article PMC7085114 (Biochemistry, 2020).
“Also recorded” adds a separate entry of the source. Read-outs that look alike come from different tables or passages of the source.

How the values were obtained:
full length SARM1 = molecular target: T1, full length SARM1 (Homo sapiens, UniProt Q6SZW1); conditions: Full length SARM1, substrate ENAD
T1 sequence (Q6SZW1 28-724): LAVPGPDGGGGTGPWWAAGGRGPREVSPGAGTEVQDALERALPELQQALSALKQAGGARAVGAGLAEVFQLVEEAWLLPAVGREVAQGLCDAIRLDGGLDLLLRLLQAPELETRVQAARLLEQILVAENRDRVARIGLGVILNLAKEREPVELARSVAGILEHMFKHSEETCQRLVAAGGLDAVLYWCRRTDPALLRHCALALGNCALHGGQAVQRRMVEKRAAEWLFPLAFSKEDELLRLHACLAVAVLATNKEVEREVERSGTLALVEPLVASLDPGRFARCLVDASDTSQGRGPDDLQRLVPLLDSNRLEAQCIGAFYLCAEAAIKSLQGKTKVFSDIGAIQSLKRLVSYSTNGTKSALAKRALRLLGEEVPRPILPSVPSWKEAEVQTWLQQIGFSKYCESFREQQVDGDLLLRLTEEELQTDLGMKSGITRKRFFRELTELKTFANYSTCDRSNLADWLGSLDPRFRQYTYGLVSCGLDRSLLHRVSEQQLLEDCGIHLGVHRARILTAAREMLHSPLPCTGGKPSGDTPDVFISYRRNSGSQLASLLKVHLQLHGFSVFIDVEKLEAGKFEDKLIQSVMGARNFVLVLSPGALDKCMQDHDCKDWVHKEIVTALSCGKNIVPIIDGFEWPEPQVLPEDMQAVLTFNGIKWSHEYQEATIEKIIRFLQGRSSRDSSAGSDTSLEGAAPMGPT

SARM1 TIR domain [1] = molecular target: T2, SARM1 TIR domain (Homo sapiens, UniProt Q6SZW1); assay: Continuous fluorescent ENAD hydrolysis assay, SARM1 TIR domain in lysate; format: biochemical; conditions: for Inhibition of SARM1 (in words): 0 – 1 mM analog, ENAD 50 μM
T2 sequence (Q6SZW1 561-724): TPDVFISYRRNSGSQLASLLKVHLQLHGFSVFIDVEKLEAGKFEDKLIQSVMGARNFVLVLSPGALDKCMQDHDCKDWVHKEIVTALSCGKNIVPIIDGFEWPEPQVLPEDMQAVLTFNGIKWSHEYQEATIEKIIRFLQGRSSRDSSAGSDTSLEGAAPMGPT

SARM1 SAM^1–2TIR domains = molecular target: T3, SARM1 SAM^1–2TIR domains (Homo sapiens, UniProt Q6SZW1); conditions: SAM TIR construct, substrate ENAD
T3 sequence (Q6SZW1 412-724): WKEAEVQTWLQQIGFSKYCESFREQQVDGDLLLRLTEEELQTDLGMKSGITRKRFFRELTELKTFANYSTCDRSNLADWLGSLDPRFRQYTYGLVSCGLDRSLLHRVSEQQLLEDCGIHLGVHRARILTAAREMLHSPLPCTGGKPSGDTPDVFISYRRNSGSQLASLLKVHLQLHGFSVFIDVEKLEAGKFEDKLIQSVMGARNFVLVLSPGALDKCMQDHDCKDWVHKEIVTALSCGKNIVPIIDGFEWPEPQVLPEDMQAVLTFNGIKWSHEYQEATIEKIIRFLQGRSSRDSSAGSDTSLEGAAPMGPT

Sir2 = conditions: ref [24]–[27]; cited from earlier work
CD38 = conditions: cited from earlier work
SARM1 TIR domain [2] = molecular target: T2, SARM1 TIR domain; assay: Luminescent NNMT-coupled NAD+ hydrolysis assay; format: biochemical; conditions: TIR domain on affinity beads, substrate NAD^+
[3] = 2 mM metal or EDTA, 300 nM SARM1, 200 μM ENAD
[4] = 300 nM SARM1, ENAD 0 – 400 μM varied

SMILES: NC(=O)c1ccc[n+]([C@@H]2O[C@H](COP(=O)([O-])OP(=O)(O)OC[C@H]3O[C@@H](n4cnc5c4ncn4ccnc54)[C@H](O)[C@@H]3O)[C@@H](O)[C@H]2O)c1 [ENAD, Nicotinamide 1, N^6–ethenoadenine dinucleotide]
- Km (full length SARM1): 70 ± 20 µM
- kcat (full length SARM1): 0.40 ± 0.04 s⁻¹
- Km (SARM1 TIR domain [1]): 35 ± 10 µM
- kcat (SARM1 TIR domain [1]; TIR domain, substrate ENAD, fluorescent assay): 0.06 ± 0.03 s⁻¹
- Km (SARM1 SAM^1–2TIR domains): 130 ± 20 µM
- kcat (SARM1 SAM^1–2TIR domains): 0.12 ± 0.02 s⁻¹

SMILES: O=C(O)CN(CCN(CC(=O)O)CC(=O)O)CC(=O)O [EDTA, ethylenediaminetetraacetic acid]
- Effect of divalent metal ions and EDTA on SARM1 catalysis (SARM1 TIR domain [1]; [3]): lack of an effect

SMILES: NC(=O)c1cnccc1Cl [4–CN, 4–chloronicotinamide]
- IC50 (SARM1 TIR domain [1]): 640 ± 40 µM
- Ki (SARM1 TIR domain [1]): 700 ± 30 µM
- Inhibition of SARM1 (in words) (SARM1 TIR domain [1]): inhibit SARM1
- Pattern (mechanism) of inhibition (SARM1 TIR domain [1]; [4]): noncompetitive
- Pattern (mechanism) of inhibition (SARM1 TIR domain [1]; 300 nM SARM1, ENAD 0 – 400 μM varied, listed as 4-Chloronicotinamide): noncompetitively

SMILES: O=C(O)CCP(CCC(=O)O)CCC(=O)O [TCEP, tris(2–carboxyethyl)phosphine]
- Effect of reducing agents on SARM1 activity (SARM1 TIR domain [1]): Neither DTT nor TCEP altered SARM1 activity

SMILES: O[C@@H](CS)[C@@H](O)CS (racemic) [DTT, dithiothreitrol]
- Effect of reducing agents on SARM1 activity (SARM1 TIR domain [1]; 0 – 2 mM reducing agent, 100 μM ENAD): Neither DTT nor TCEP altered SARM1 activity

SMILES: NC(=O)c1ccc(Cl)nc1 [6-CN, 6–chloronicotinamide]
- Inhibition of SARM1 (in words) (SARM1 TIR domain [1]): inhibit SARM1

SMILES: [Cl][Mn][Cl] [MnCl2]
- Effect of divalent metal ions and EDTA on SARM1 catalysis (SARM1 TIR domain [1]; [3]): only Ni^2+ and Zn^2+ inhibit SARM1

SMILES: [Cl-].[Cl-].[Mg+2] [MgCl2]
- Effect of divalent metal ions and EDTA on SARM1 catalysis (SARM1 TIR domain [1]; [3]): only Ni^2+ and Zn^2+ inhibit SARM1

SMILES: [Cl-].[Cl-].[Co+2] [CoCl2]
- Effect of divalent metal ions and EDTA on SARM1 catalysis (SARM1 TIR domain [1]): only Ni^2+ and Zn^2+ inhibit SARM1

SMILES: [Cl-].[Cl-].[Zn+2] [Zn^2+, ZnCl2]
- Effect of divalent metal ions and EDTA on SARM1 catalysis (SARM1 TIR domain [1]; [3]): inhibit SARM1

SMILES: Nc1ncnc2c1ncn2[C@@H]1O[C@H](COP(=O)(O)OP(=O)(O)OC[C@H]2OC(O)[C@H](O)[C@@H]2O)[C@@H](O)[C@H]1O (stereo partly shown) [ADPR, ADP Ribose]
- Ki (SARM1 TIR domain [1]; [4]): 90 ± 10 µM
- Pattern (mechanism) of inhibition (SARM1 TIR domain [1]; [4]): competitive; also recorded: competitively

SMILES: [Cl][Ni][Cl] [Ni^2+, NiCl2]
- Effect of divalent metal ions and EDTA on SARM1 catalysis (SARM1 TIR domain [1]): inhibit SARM1
- IC50 (SARM1 TIR domain [1]; read-out: IC50 of metal ion inhibition of SARM1): 600 ± 100 µM

SMILES: NC(=O)c1cccnc1 [nicotinamide]
- Pattern of inhibition (Sir2): noncompetitive
- Ki (CD38; ref [23]): 7100 µM
- Pattern of inhibition (CD38; ref [24]–[27]): mixed inhibition

SMILES: [Ca+2].[Cl-].[Cl-] [CaCl2]
- Effect of divalent metal ions and EDTA on SARM1 catalysis (SARM1 TIR domain [1]; [3]): only Ni^2+ and Zn^2+ inhibit SARM1

SMILES: NC(=O)c1ccc[n+]([C@@H]2O[C@H](COP(=O)([O-])OP(=O)(O)OC[C@H]3O[C@@H](n4cnc5c(N)ncnc54)[C@H](O)[C@@H]3O)[C@@H](O)[C@H]2O)c1 [NAD^+]
- Km (SARM1 TIR domain [2]): 28 ± 6 µM
- kcat (SARM1 TIR domain [2]): 0.21 ± 0.03 s⁻¹

SMILES: [Cl][Cd][Cl] [CdCl2]
- Effect of divalent metal ions and EDTA on SARM1 catalysis (SARM1 TIR domain [1]): only Ni^2+ and Zn^2+ inhibit SARM1

SMILES: [Cl][Cu][Cl] [CuCl2]
- Effect of divalent metal ions and EDTA on SARM1 catalysis (SARM1 TIR domain [1]; [3]): only Ni^2+ and Zn^2+ inhibit SARM1
